Data taken from BindingDB's records for doi:10.1016/S0960-894X(01)80876-3 (1993).

experiment: Ability to inhibit blood platelet aggregation of human platelet-rich plasma induced by TP-receptor agonist U 46619

Structure (SMILES)	IC50
O=C(O)CCC/C=C1\C[C@H]2C[C@@H](O)[C@H](C=NNC(=O)Nc3ccc(Cl)c(Cl)c3)[C@H]2C1	200 nM
O=C(O)CCC/C=C1/C[C@H]2CC[C@H](C=NNC(=O)Nc3ccc(Cl)c(Cl)c3)[C@H]2C1	1800 nM
O=C(O)CC/C=C1\C[C@H]2C[C@@H](O)[C@H](C=NNC(=O)Nc3cccc(Cl)c3)[C@H]2C1	5200 nM
O=C(O)CCC/C=C1\C[C@H]2CC[C@H](C=NNC(=O)Nc3ccc(Cl)c(Cl)c3)[C@H]2C1	9000 nM
O=C(O)COC/C=C1\C[C@H]2C[C@@H](O)[C@H](C=NNC(=O)Nc3ccccc3)[C@H]2C1	6000 nM
O=C(O)COC/C=C1/C[C@H]2C[C@@H](O)[C@H](C=NNC(=O)Nc3ccccc3)[C@H]2C1	1400 nM
O=C(O)CCC/C=C1/C[C@H]2CC[C@H](C=NNC(=O)Nc3ccccc3)[C@H]2C1	2300 nM
O=C(O)CCC/C=C1\C[C@H]2CC[C@H](C=NNC(=O)Nc3ccccc3)[C@H]2C1	12000 nM
O=C(O)CC/C=C1\C[C@H]2C[C@@H](O)[C@H](C=NNC(=O)Nc3ccccc3)[C@H]2C1	26000 nM
O=C(O)CCC/C=C1\C[C@H]2CC[C@H](C=NNC(=O)Nc3cccc(Cl)c3)[C@H]2C1	6500 nM
O=C(O)COC/C=C1\C[C@H]2C[C@@H](O)[C@H](C=NNC(=O)Nc3cccc(Cl)c3)[C@H]2C1	1600 nM

Now from value to molecule:

IC50	Structure (SMILES)
100 nM	O=C(O)CCC/C=C1/C[C@H]2C[C@@H](O)[C@H](C=NNC(=O)Nc3ccccc3)[C@H]2C1
130 nM	O=C(O)CCC/C=C1\C[C@H]2C[C@@H](O)[C@H](C=NNC(=O)Nc3cccc(Cl)c3)[C@H]2C1
580 nM	O=C(O)CCC/C=C1/CC2CCC([CH+][N-]NC(=O)Nc3ccc([N+](=O)[O-])cc3)C2C1 (stereo unspecified)
50 nM	O=C(O)CCC/C=C1/CC2CC(O)C([CH+][N-]NC(=O)Nc3ccc([N+](=O)[O-])cc3)C2C1 (stereo unspecified)
520 nM	O=C(O)CC/C=C1\CC2CC(O)C([CH+][N-]NC(=O)Nc3ccc([N+](=O)[O-])cc3)C2C1 (stereo unspecified)
